This is an account of results in PMC12382614, “(Oxidopyridyl)Porphyrins of Different Lipophilicity: Photophysical Properties, ROS Production and Phototoxicity on Melanoma Cells Under CoCl2-Induced Hypoxia” (Antioxidants, 2025).

For one series, the system named is HIF-1α. The series can be described thus: Hypoxia induction with CoCl2, Western blot. The series is classed as cell-based, human. The conditions noted are these: A375 cell line, 100 μM CoCl2 in DMEM, 1 and 2 h. As to the method:
The cells were seeded into 12-well plates at a concentration of 10^5 cells/well. After the cells had reached full morphology (approx. 48 h), the medium was replaced with fresh medium containing cobalt(II) chloride (CoCl2) at a concentration of 100 μM, followed by incubation at 37 °C for 1 and 2 h. In the control sample, fresh medium without CoCl2 was added. After the incubation, cells were kept on ice and washed with ice-cold 1x PBS. After removing the 1x PBS, the cells were lysed with ice-cold radio-immunoprecipitation assay buffer (RIPA) buffer (50 mM Tris, 150 mM NaCl, 0.5% sodium deoxycholate, and 1% Triton X-100) and then incubated on ice for 30 min. The cells were centrifuged at 14,000 rpm at 4 °C for 10 min to separate the DNA in pellets and proteins in the supernatant. The supernatant was collected, and 4× Laemmli sample buffer (50 mM Tris pH 6.8, 10% glycerol, 2% SDS, 2% 2-mercaptoethanol, and 0.04% bromophenol blue) was added. The samples were heated at 95 °C for 10 min before separation on 10% polyacrylamide gels (SDS-PAGE). All gels were transferred to nitrocellulose membranes using the semi-dry transfer system at 100 V (Trans-Blot Turbo RTA Transfer kit, Bio Rad, Hercules, CA, USA, #1704270). […]

Details of series [1]: method as in PMID 3222336. The conditions noted are these: reference compound; cited from earlier work.
For series [2] the following is noted: cited from earlier work.

With `[Cl-].[Cl-].[Co+2]` [CoCl2, Cobalt(II) chloride], in the series on HIF-1α, the “HIF-1α protein level (Western blot, normalised to β-actin)” value is listed as “accumulation of HIF-1α”.

Consider `C1=Cc2nc1c(-c1ccccc1)c1nc(c(-c3ccccc3)c3ccc([nH]3)c(-c3ccccc3)c3ccc([nH]3)c2-c2ccccc2)C=C1` [TPP, tetraphenylporphyrin, reference compound], for which the τFL in series [1] is 10.7 ns. Moreover, in series [2] (reference compound (in toluene)), the ΦISC is on record as 0.87. Further, in series [2] (reference compound), the εT-T is on record as 66 600 M^−1cm^−1 and the τT is given as 90 μs.
